Experimental data as given in PMC10377353, “Targeted Destruction of S100A4 Inhibits Metastasis of Triple Negative Breast Cancer Cells” (Biomolecules, 2023).

Biological target: T1, S100A4 (Homo sapiens, UniProt P26447)
T1 construct: recombinant human (rh)S100A4, pET-15b, E. coli BL21 (DE3); with nonmuscle myosin IIA C-terminal fragment (rC-NMIIA, 149 terminal amino acids)
Assay: resonant mirror biosensor (SPR-type), inhibition of rhS100A4 binding to immobilised rC-NMIIA

T1 sequence (P26447 2-101): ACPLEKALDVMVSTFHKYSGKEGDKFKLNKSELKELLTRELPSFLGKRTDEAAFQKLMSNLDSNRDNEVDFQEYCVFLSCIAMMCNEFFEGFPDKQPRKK
T1 sequence (P35579 2-1960 partner): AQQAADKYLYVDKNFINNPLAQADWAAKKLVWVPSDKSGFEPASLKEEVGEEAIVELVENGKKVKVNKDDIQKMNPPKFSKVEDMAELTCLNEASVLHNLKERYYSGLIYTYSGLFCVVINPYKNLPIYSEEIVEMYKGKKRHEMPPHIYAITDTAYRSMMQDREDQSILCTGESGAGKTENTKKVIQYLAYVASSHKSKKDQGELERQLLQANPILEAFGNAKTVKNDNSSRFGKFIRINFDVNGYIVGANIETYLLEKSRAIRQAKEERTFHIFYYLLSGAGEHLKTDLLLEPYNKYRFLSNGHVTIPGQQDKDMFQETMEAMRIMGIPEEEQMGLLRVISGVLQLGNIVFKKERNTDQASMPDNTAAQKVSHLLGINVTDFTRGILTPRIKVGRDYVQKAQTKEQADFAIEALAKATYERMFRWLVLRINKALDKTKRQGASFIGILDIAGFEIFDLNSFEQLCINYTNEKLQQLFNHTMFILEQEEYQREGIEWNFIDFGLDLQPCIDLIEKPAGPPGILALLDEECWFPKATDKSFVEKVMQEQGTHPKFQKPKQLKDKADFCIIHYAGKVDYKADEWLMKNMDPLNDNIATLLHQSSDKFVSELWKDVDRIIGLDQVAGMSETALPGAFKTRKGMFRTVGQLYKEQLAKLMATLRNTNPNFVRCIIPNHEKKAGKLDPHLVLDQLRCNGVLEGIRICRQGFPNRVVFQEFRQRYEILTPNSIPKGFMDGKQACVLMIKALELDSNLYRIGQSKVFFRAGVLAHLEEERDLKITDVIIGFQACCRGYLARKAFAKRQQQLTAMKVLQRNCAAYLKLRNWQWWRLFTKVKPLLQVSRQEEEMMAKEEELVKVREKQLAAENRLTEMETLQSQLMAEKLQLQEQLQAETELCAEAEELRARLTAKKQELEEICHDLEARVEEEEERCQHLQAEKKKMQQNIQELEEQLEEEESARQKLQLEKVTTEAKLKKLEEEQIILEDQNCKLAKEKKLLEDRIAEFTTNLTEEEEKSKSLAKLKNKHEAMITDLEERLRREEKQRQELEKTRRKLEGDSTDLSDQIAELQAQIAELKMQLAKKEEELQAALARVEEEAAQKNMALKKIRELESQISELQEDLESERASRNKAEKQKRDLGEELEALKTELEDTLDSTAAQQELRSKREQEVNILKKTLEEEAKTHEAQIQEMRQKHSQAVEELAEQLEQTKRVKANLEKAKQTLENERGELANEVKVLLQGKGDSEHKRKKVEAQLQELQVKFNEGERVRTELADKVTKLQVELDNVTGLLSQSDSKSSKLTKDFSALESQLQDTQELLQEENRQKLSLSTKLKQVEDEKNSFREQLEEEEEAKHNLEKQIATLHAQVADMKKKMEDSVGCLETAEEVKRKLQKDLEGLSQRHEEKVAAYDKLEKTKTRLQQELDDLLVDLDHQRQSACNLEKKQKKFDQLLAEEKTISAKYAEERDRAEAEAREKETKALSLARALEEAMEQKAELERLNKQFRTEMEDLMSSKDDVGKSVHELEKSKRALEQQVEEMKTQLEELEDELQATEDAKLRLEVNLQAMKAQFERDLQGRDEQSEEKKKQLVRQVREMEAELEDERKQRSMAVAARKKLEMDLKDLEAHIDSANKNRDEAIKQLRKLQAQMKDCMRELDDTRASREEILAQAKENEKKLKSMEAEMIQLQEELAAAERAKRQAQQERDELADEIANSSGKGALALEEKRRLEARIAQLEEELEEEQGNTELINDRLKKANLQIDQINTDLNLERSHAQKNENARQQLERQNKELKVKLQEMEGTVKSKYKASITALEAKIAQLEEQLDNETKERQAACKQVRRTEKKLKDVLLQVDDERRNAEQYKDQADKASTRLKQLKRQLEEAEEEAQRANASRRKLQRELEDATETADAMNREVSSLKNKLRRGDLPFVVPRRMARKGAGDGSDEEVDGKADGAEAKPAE

COC1(OC)[C@@]2(Cl)C(Cl)=C(Cl)[C@]1(Cl)[C@@H]1C(=O)N(c3ccccc3C)C(=O)[C@@H]12 [CT070909]
inhibition at 33 µM: > 90%
